From PMC9963438, “Emerging Effects of Resveratrol Derivatives in Cells Involved in Oral Wound Healing: A Preliminary Study” (International Journal of Molecular Sciences, 2023)

Columns and labels:
[1] = test system: human gingival fibroblasts (HGFs); experiment: MTT cytocompatibility screening on HGFs, 24 h; format: cell-based; conditions: for HGFs metabolic activity / cell viability (MTT): 10 µM, vs control (DMSO) and RSV; for HGFs cell viability (MTT): vs control and RSV
HGFs = experiment: Toluidine blue staining, morphology and confluence of HGFs; format: cell-based, human; conditions: 72 h; 1d and 1h 5 µM, RSV 10 µM
Experimental: The influence of 1d and 1h was evaluated on cells density and morphology by toluidine-blue staining. A total of 2 × 10^4 cells/well were cultured in 24-well plates and were incubated at 37 °C and 5% CO2 with tested compounds at 5 µM. After 48 and 72 h, adherent cells were fixed with 70% cold ethanol and stained with 1% toluidine blue and 1% borax (Sigma Aldrich, St. Louis, MO, USA). Cells were then observed by an inverted microscope connected with a camera at 40×, 100×, and 200× magnifications (Leica, Wild Heer-brugg, Wetzlar, Germany).

eNOS mRNA in HUVECs = experiment: RT-qPCR of eNOS in HUVECs; format: cell-based, human; conditions: RSV 10 µM, 48 and 72 h, time-dependent manner
Experimental: Total RNA was isolated using Trifast reagent (EuroClone) according to the manufacturer instructions from 3 × 10^5 cells/well treated with increasing concentrations of 1d and 1h for 48 h and 72 h. Complementary DNA (cDNA) was obtained using GoTaq® 2 Step RT-qPCR Kit (Promega, Madison, WI, USA) in accordance with the manufacturer’s instructions. RT-qPCR was carried out using SYBR Green (Promega) on the Quant Studio 7 Pro Real-Time PCR System (ThermoFisher, Waltham, MA, USA). The results were normalized to glyceraldehyde 3-phoshate dehydrogenase (GAPDH) for HUVECs and HGFs and to β-actin (βACT) for HOBs using the 2^−ΔΔCt method.

Row | Structure (SMILES) | HGFs metabolic activity / cell viability (MTT) [1] | HGFs cell viability (MTT) ([1]; 20 µM) | HGFs cell viability (MTT) ([1]; 50 µM) | HGFs morphology (HGFs) | eNOS mRNA expression (eNOS mRNA in HUVECs)
1 | N#Cc1ccc(S(=O)(=O)Nc2ccc(/C=C/c3ccccc3)cc2)cc1 [1e] | significantly decreased the HGFs metabolic activity | statistically significant reduction in cell viability | statistically reduce HGF viability |  | 
2 | O=[N+]([O-])c1cccc(S(=O)(=O)Nc2ccc(/C=C/c3ccccc3)cc2)c1 [1b] | significantly decreased the HGFs metabolic activity |  | statistically reduce HGF viability |  | 
3 | CS(=O)(=O)Nc1ccc(/C=C/c2ccccc2)cc1 [1g] | significantly decreased the HGFs metabolic activity | statistically significant reduction in cell viability | statistically reduce HGF viability |  | 
4 | O=S(=O)(Cc1ccccc1)Nc1ccc(/C=C/c2ccccc2)cc1 [1i] | did not show any significant difference | statistically significant reduction in cell viability | statistically reduce HGF viability |  | 
5 | Cc1ccc(S(=O)(=O)Nc2ccc(/C=C/c3ccccc3)cc2)cc1[N+](=O)[O-] [1c] | did not show any significant difference |  | statistically reduce HGF viability |  | 
6 | COc1cc(OC)cc(S(=O)(=O)Nc2ccc(/C=C/c3ccccc3)cc2)c1 [1f] | significantly decreased the HGFs metabolic activity |  | statistically reduce HGF viability |  | 
7 | O=S(=O)(Nc1ccc(/C=C/c2ccccc2)cc1)c1ccccc1 [1a] | did not show any significant difference | slight increase in HGF viability | no statistically significant differences |  | 
8 | Oc1ccc(/C=C/c2cc(O)cc(O)c2)cc1 [RSV, trans-3,5,4′-trihydroxystilbene, reference compound] |  |  |  | appeared as irregular triangles, polygons, and other shapes | induced eNOS mRNA expression
